Measurements taken from article PMC2453323 (PLoS Pathogens, 2008).

Legend:
[1] = target: neuraminidase of A(H1N1) clinical isolate 0650/04 (Influenza A virus (H1N1), UniProt B4YYP0); test: biochemical
[2] = target: neuraminidase of A(H1N1) clinical isolate 1951/06 (Influenza A virus, UniProt B4URD9); format: biochemical
[3] = target: neuraminidase of A(H1N1) clinical isolate 0974/08 (Influenza A virus, UniProt G3LYQ1); format: biochemical
[4] = target: neuraminidase of A(H1N1) clinical isolate 1149/08 (Influenza A virus, UniProt G3LYQ1); format: biochemical
[5] = target: neuraminidase of A(H1N1) clinical isolate 0611/07 (Influenza A virus (H1N1), UniProt D5F1R0); format: biochemical
[6] = target: neuraminidase of A/New Caledonia/20/99(H1N1) (NC99) (Influenza A virus, UniProt Q7TG96); test: biochemical; format: biochemical
[7] = target: neuraminidase of A(H1N1) clinical isolate 0814/07 (Influenza A virus, UniProt D5F1R0); format: biochemical
[8] = target: neuraminidase of the 6 sensitive H1N1 viruses from the 2007–2008 season (Influenza A virus, UniProt D5F1R0); format: biochemical; details: read-out: Mean Km, group Mean
[9] = target: neuraminidase of A(H1N1) clinical isolate 0286/07 (Influenza A virus (H1N1), UniProt D5F1R0); format: biochemical
[10] = target: neuraminidase of the 5 pre-2007–2008 H1N1 viruses (Influenza A virus, UniProt B4URD9); format: biochemical; details: read-out: Mean Km, group Mean
[11] = target: neuraminidase of A/Solomon Islands/3/2006(H1N1) (SI06) (Influenza A virus, UniProt B4URD9); format: biochemical
[12] = target: neuraminidase of A(H1N1) clinical isolate 0497/07 (Influenza A virus (H1N1), UniProt D5F1R0); format: biochemical
[13] = target: neuraminidase of A(H1N1) clinical isolate 0692/07 (Influenza A virus (H1N1), UniProt A8C8J7); format: biochemical

| SMILES | Ki [1] [nM] | Km [2] [µM] | Km [3] [µM] | Km [4] [µM] | Km [5] [µM] | Km [6] [µM] | Km [1] [µM] | Km [7] [µM] | Km [8] [µM] | Km [9] [µM] | Km [10] [µM] | Km [11] [µM] | Km [12] [µM] | Km [13] [µM] | Ki [6] [nM] |
| --- | --- | --- | --- | --- | --- | --- | --- | --- | --- | --- | --- | --- | --- | --- | --- |
| CC(=O)N[C@H]1[C@H]([C@H](O)[C@H](O)CO)OC(C(=O)O)=C[C@@H]1N=C(N)N [Zana, zanamivir] | 0.2 | – | – | – | – | – | – | – | – | – | – | – | – | – | – |
| CC(=O)N[C@@H]1[C@@H](O)C[C@](Oc2ccc3c(C)cc(=O)oc3c2)(C(=O)O)O[C@H]1C(O)[C@H](O)CO (stereo partly shown) [MUNANA] | – | 29.5 | 10.4 | 10.4 | 8 | 27.4 | 25.6 | 9 | 9 ± 1.2 | 8.5 | 28 | 25.1 | 7.5 | 31.5 | – |
| CCOC(=O)C1=C[C@@H](OC(CC)CC)[C@H](NC(C)=O)[C@@H](N)C1 [OC, oseltamivir] | 0.2 | – | – | – | – | – | – | – | – | – | – | – | – | – | 0.19 |
